Measurements: PubChem BioAssay AID248 (DTP/NCI, 2004)
Several values for one entry are separate records, joined by “and”; a condition that tells them apart may be missing. Equal entries are not always repeated. Toxic doses and inconclusive results are not listed. Rule as the data show it: active = T/C of 150% or more; inactive = T/C below 125%.

Test system: L1210 leukemia ip in BDF1 mice, survival T/C
Test: NCI In Vivo Anticancer Drug Screen. Data for tumor model L1210 Leukemia (intraperitoneal) in B6D2F1 (BDF1) mice
Settings: endpoint: mean survival time, higher = longer survival
Procedure, shortened: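 Transplanted-tumor mice were given test agent; controls received vehicle only. Survival readings from the two groups were divided (treated over control).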

[1] = dose: 100.0 mg/kg/injection, schedule: Q04DX003 (ip), vehicle: saline with Tween-80
[2] = dose: 200.0 mg/kg/injection, schedule: Q04DX003 (ip), vehicle: saline with Tween-80
[3] = dose: 400.0 mg/kg/injection, schedule: Q04DX003 (ip), vehicle: saline with Tween-80
[4] = dose: 100.0 mg/kg/injection, schedule: Q01DX009 (ip), vehicle: Klucel (hydroxypropylcellulose) (HPC)
[5] = dose: 100.0 mg/kg/injection, schedule: Q04DX003 (ip), vehicle: Klucel (hydroxypropylcellulose) (HPC)
[6] = dose: 200.0 mg/kg/injection, schedule: Q01DX009 (ip), vehicle: Klucel (hydroxypropylcellulose) (HPC)
[7] = dose: 200.0 mg/kg/injection, schedule: Q04DX003 (ip), vehicle: Klucel (hydroxypropylcellulose) (HPC)
[8] = dose: 400.0 mg/kg/injection, schedule: Q01DX009 (ip), vehicle: Klucel (hydroxypropylcellulose) (HPC)
[9] = dose: 400.0 mg/kg/injection, schedule: Q04DX003 (ip), vehicle: Klucel (hydroxypropylcellulose) (HPC)
[10] = dose: 100.0 mg/kg/injection, schedule: Q01DX009 (ip), vehicle: saline
[11] = dose: 100.0 mg/kg/injection, schedule: Q04DX003 (ip), vehicle: saline
[12] = dose: 200.0 mg/kg/injection, schedule: Q01DX009 (ip), vehicle: saline
[13] = dose: 200.0 mg/kg/injection, schedule: Q04DX003 (ip), vehicle: saline
[14] = dose: 400.0 mg/kg/injection, schedule: Q01DX009 (ip), vehicle: saline
[15] = dose: 400.0 mg/kg/injection, schedule: Q04DX003 (ip), vehicle: saline
[16] = dose: 75.0 mg/kg/injection, schedule: Q04DX003 (ip), vehicle: saline

Measured: T/C

CCOc1cc(N)nc(N)c1[N+](=O)[O-]
inactive: dose: 100.0 mg/kg/injection, schedule: Q01DX001 (ip), vehicle: carboxymethylcellulose (CMC) 95 % of control | dose: 200.0 mg/kg/injection, schedule: Q01DX001 (ip), vehicle: carboxymethylcellulose (CMC) 87 % of control

CC(=O)c1scc2c1CCCC2
inactive: dose: 25.0 mg/kg/injection, schedule: Q01DX001 (ip), vehicle: saline with Tween-80 94 % of control | dose: 50.0 mg/kg/injection, schedule: Q01DX001 (ip), vehicle: saline with Tween-80 96 % of control | dose: 100.0 mg/kg/injection, schedule: Q01DX001 (ip), vehicle: saline with Tween-80 96 % of control

O=C1c2cc([N+](=O)[O-])ccc2-c2cc(Cl)ccc21
inactive: [1] 97 % of control | [2] 97 % of control | [3] 97 % of control

Cc1cc2c(cc1C)NC(=O)C(C)CN2 (stereo not drawn)
inactive: [4] 103 % of control | [5] 98 % of control | [6] 108 % of control | [7] 103 % of control | [8] 95 % of control | [9] 101 % of control

CCCCCC(N)CC(=O)O (stereo not drawn)
inactive: [10] 105 % of control | [11] 102 % of control | [12] 96 % of control | [13] 96 % of control | [14] 96 % of control | [15] 105 % of control

Cn1cnc2nc(Cl)[nH]c(=O)c21
inactive: [5] 100 % of control | [7] 97 % of control | [9] 95 % of control

CC(C)(C)C1CCC(N=C(N)CS)CC1 (stereo not drawn)
inactive: dose: 1.5 mg/kg/injection, schedule: Q01DX001 (ip), vehicle: carboxymethylcellulose (CMC) 98 % of control | dose: 3.0 mg/kg/injection, schedule: Q01DX001 (ip), vehicle: carboxymethylcellulose (CMC) 98 % of control | dose: 6.0 mg/kg/injection, schedule: Q01DX001 (ip), vehicle: carboxymethylcellulose (CMC) 95 % of control

CCOC(=O)c1cnc(SCc2ccccc2Cl)nc1N1CC1
inactive: dose: 12.5 mg/kg/injection, schedule: Q01DX001 (ip), vehicle: saline 100 % of control | dose: 12.5 mg/kg/injection, schedule: Q04DX003 (ip), vehicle: saline 100 % of control | dose: 25.0 mg/kg/injection, schedule: Q01DX001 (ip), vehicle: saline 98 % of control | dose: 25.0 mg/kg/injection, schedule: Q04DX003 (ip), vehicle: saline 101 % of control | dose: 28.05 mg/kg/injection, schedule: Q01DX009 (ip), vehicle: acetone 92 % of control | dose: 42.5 mg/kg/injection, schedule: Q01DX009 (ip), vehicle: acetone 112 % of control | dose: 50.0 mg/kg/injection, schedule: Q01DX001 (ip), vehicle: saline 98 % of control | dose: 50.0 mg/kg/injection, schedule: Q04DX003 (ip), vehicle: saline 98 % of control and 100 % of control and 113 % of control | dose: 63.75 mg/kg/injection, schedule: Q01DX009 (ip), vehicle: acetone 117 % of control | [16] 102 % of control and 117 % of control | dose: 110.0 mg/kg/injection, schedule: Q04DX003 (ip), vehicle: saline 104 % of control and 120 % of control | dose: 115.0 mg/kg/injection, schedule: Q04DX003 (ip), vehicle: saline 122 % of control | dose: 170.0 mg/kg/injection, schedule: Q04DX003 (ip), vehicle: saline 115 % of control

CC1(C)C2CC3C(=CCCC3C#N)C1C2 (stereo not drawn)
inactive: [4] 105 % of control | [5] 97 % of control | [6] 97 % of control | [7] 95 % of control | [8] 103 % of control | [9] 92 % of control

ClCc1cc(Cl)c(Cl)cc1Cl
inactive: dose: 25.0 mg/kg/injection, schedule: Q01DX009 (ip), vehicle: acetone 93 % of control | dose: 50.0 mg/kg/injection, schedule: Q01DX009 (ip), vehicle: acetone 92 % of control | dose: 100.0 mg/kg/injection, schedule: Q01DX009 (ip), vehicle: acetone 90 % of control | dose: 100.0 mg/kg/injection, schedule: Q04DX003 (ip), vehicle: acetone 100 % of control | dose: 150.0 mg/kg/injection, schedule: Q01DX009 (ip), vehicle: acetone 95 % of control

NCCCNc1ccc([N+](=O)[O-])cc1
inactive: dose: 37.5 mg/kg/injection, schedule: Q04DX003 (ip), vehicle: saline 101 % of control | [16] 102 % of control | dose: 150.0 mg/kg/injection, schedule: Q04DX003 (ip), vehicle: saline 101 % of control

CC(=O)NC(=O)Nc1ccccc1
inactive: [5] 94 % of control | [7] 103 % of control | [9] 95 % of control

Cc1ccc(S(=O)(=O)N/N=C2/C(=N/NS(=O)(=O)c3ccc(C)cc3)c3cccc4cccc2c34)cc1
inactive: dose: 75.0 mg/kg/injection, schedule: Q01DX001 (ip), vehicle: carboxymethylcellulose (CMC) 91 % of control | dose: 150.0 mg/kg/injection, schedule: Q01DX001 (ip), vehicle: carboxymethylcellulose (CMC) 91 % of control | dose: 300.0 mg/kg/injection, schedule: Q01DX001 (ip), vehicle: carboxymethylcellulose (CMC) 88 % of control

ClCCN(CCCl)c1ccc(C=Nc2cc(Cl)ccc2-n2ccnc2)c(Cl)c1
inactive: dose: 100.0 mg/kg/injection, schedule: Q04DX002 (ip), vehicle: Klucel (hydroxypropylcellulose) (HPC) 98 % of control | dose: 200.0 mg/kg/injection, schedule: Q04DX002 (ip), vehicle: Klucel (hydroxypropylcellulose) (HPC) 95 % of control | dose: 400.0 mg/kg/injection, schedule: Q04DX002 (ip), vehicle: Klucel (hydroxypropylcellulose) (HPC) 98 % of control

O=C(O)C12CCC(CC1Br)C2 (stereo not drawn)
inactive: dose: 75.0 mg/kg/injection, schedule: Q01DX001 (ip), vehicle: acetone 105 % of control | [10] 102 % of control | dose: 150.0 mg/kg/injection, schedule: Q01DX001 (ip), vehicle: acetone 106 % of control | [12] 110 % of control | dose: 300.0 mg/kg/injection, schedule: Q01DX001 (ip), vehicle: acetone 102 % of control | [14] 102 % of control

CCOC(=O)c1ccc([N+](=O)[O-])s1
inactive: [11] 100 % of control | [13] 97 % of control | [15] 111 % of control

Cc1ccc(S(=O)(=O)NN)cc1
inactive: [1] 97 % of control | [2] 101 % of control | [3] 88 % of control

O=[N+]([O-])c1ccc(NC(c2ccccc2)c2ccc3cccnc3c2O)cc1 (stereo not drawn)
inactive: dose: 100.0 mg/kg/injection, schedule: Q01DX001 (ip), vehicle: saline 89 % of control | dose: 200.0 mg/kg/injection, schedule: Q01DX001 (ip), vehicle: saline 95 % of control | dose: 400.0 mg/kg/injection, schedule: Q01DX001 (ip), vehicle: saline 91 % of control

COc1cc(CC2c3ccccc3CC[N+]2(C)C)c(Oc2cc(CC3c4ccccc4CC[N+]3(C)C)ccc2OC)cc1OC (stereo not drawn)
inactive: dose: 0.78 mg/kg/injection, schedule: Q01DX009 (ip), vehicle: Klucel (hydroxypropylcellulose) (HPC) 103 % of control | dose: 1.56 mg/kg/injection, schedule: Q01DX009 (ip), vehicle: Klucel (hydroxypropylcellulose) (HPC) 97 % of control | dose: 3.13 mg/kg/injection, schedule: Q01DX009 (ip), vehicle: Klucel (hydroxypropylcellulose) (HPC) 100 % of control

ON=C1CCC(CC2CCCCC2)CC1 (stereo not drawn)
inactive: [1] 95 % of control | [2] 100 % of control | [3] 101 % of control
